The experiment concerns the target T1, epithelial sodium channel (ENaC) (Homo sapiens, UniProt P37088+P51168+P51170).
T1 construct: host or cells: primary Human Bronchial Epithelial cells (HBECs), air-liquid interface culture
T1 sequence (P37088 1-669): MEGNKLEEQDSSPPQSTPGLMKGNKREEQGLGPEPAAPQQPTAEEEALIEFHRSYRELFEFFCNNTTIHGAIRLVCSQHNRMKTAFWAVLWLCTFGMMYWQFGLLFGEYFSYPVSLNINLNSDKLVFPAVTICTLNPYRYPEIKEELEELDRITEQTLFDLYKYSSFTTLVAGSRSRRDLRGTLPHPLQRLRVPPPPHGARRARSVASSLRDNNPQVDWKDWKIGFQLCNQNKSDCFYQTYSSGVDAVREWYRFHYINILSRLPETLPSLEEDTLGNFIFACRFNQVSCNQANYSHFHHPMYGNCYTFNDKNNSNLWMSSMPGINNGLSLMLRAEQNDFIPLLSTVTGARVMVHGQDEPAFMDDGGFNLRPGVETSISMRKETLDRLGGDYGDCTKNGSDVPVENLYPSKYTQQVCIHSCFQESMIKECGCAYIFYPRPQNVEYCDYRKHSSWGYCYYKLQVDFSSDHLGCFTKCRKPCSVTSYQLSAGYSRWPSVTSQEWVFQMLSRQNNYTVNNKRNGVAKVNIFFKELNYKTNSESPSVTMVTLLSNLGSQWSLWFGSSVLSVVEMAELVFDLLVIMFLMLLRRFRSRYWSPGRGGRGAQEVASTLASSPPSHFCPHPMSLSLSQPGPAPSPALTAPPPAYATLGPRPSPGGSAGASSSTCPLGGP
T1 sequence (P51168 1-640): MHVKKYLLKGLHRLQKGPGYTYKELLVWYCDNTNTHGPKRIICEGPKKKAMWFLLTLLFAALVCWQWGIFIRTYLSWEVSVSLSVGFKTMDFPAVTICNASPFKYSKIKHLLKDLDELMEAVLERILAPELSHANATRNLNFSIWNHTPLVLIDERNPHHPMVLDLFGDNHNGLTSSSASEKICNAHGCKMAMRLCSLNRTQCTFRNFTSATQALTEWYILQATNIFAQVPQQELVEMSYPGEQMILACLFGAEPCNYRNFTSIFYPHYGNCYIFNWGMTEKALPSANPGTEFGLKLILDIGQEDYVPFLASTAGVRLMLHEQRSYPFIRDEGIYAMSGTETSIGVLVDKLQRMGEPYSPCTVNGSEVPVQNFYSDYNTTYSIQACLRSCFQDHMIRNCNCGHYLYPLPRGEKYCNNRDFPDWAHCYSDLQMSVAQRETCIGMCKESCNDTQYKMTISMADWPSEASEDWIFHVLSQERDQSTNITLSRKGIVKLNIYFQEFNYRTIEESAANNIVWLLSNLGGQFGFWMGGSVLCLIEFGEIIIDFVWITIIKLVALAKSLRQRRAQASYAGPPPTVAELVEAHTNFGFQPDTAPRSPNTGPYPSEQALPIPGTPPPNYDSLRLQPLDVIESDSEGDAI
T1 sequence (P51170 1-649): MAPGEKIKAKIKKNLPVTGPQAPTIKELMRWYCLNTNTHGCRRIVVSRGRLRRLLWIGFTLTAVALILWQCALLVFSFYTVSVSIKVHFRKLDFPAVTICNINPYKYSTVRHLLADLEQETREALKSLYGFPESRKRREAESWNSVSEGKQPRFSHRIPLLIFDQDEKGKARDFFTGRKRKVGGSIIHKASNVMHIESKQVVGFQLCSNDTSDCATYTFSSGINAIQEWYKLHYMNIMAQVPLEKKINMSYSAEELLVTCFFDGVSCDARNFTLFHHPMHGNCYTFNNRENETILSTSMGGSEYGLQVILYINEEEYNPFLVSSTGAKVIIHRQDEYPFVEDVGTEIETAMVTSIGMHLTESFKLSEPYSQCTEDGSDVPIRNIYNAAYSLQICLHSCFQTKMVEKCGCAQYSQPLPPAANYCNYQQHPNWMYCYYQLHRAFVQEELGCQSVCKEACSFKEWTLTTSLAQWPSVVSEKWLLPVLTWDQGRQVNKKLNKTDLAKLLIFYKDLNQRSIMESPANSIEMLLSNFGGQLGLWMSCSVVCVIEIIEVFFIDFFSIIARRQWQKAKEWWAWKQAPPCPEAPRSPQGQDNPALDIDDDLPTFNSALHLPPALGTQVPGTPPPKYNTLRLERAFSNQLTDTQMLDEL
The experiment is described as follows: Short circuit current (ISC) measurements in Human Bronchial Epithelial cells, inhibition of amiloride-sensitive ISC. Particulars: inhibition of the amiloride-sensitive ISC; Human Bronchial Epithelial cells (HBECs) at air-liquid interface; compound added to apical chamber; read-out: IC50. The format is cell-based. A digest of the protocol: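 Well-differentiated air-liquid interface HBECs (days 7–21) in Ussing chambers, Ringer pH 7.4, 37° C, voltage clamped at 0 mV. Cumulative 3-fold apical compound additions, then 10 μM amiloride to define total amiloride-sensitive ISC. IC50 from mean % inhibition, typically duplicate inserts.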

As a reminder, the IC50 is the concentration that inhibits the measured activity by half. Take `Nc1nc(N)c(C(=O)/N=C2\NCC3(CCN(C(=O)c4cccc(S(=O)(=O)N5CCC(S(=O)(=O)c6ccccc6)C5)c4)CC3)N2)nc1Cl` (stereo not shown) [Example 141, 3,5-Diamino-6-chloro-pyrazine-2-carboxylic acid [8-[3-(3-benzenesulfonyl-pyrrolidine-1-sulfonyl)-benzoyl]-1,3,8-triaza-spiro[4.5]dec-(2E)-ylidene]-amide]: the IC50 turned out to be 2 nM. Then `Nc1nc(N)c(C(=O)/N=C2\NCC3(CCN(C(=O)Cc4nnc(-c5ccccc5)[nH]4)CC3)N2)nc1Cl` [Example 42, 3,5-Diamino-6-chloro-pyrazine-2-carboxylic acid [8-[2-(5-phenyl-4H-[1,2,4]triazol-3-yl)-acetyl]-1,3,8-triaza-spiro[4.5]dec-(2E)-ylidene]-amide], with 11 nM; and `Nc1nc(N)c(C(=O)/N=C2\NCC3(CCN(C(=O)[C@H]4CC[C@H](C(=O)N5CCC6(CC5)CN/C(=N\C(=O)c5nc(Cl)c(N)nc5N)N6)CC4)CC3)N2)nc1Cl` [Example 94], with 9 nM.

Turning to `Cc1oc(-c2ccccc2)nc1COc1ccc(S(=O)(=O)N2CCC3(CC2)CN/C(=N\C(=O)c2nc(Cl)c(N)nc2N)N3)cc1` [Example 238, 3,5-Diamino-6-chloro-pyrazine-2-carboxylic acid [8-[4-(5-methyl-2-phenyl-oxazol-4-ylmethoxy)-benzenesulfonyl]-1,3,8-triaza-spiro[4.5]dec-(2E)-ylidene]-amide], the IC50 is 119 nM.
